Results as given in patent US10988477B2 (Merck Patent GmbH, priority 2018, dated 2021).

Biological target: GCN2 kinase (Homo sapiens, UniProt Q9P2K8)
Assay: GCN2 enzyme inhibition assay (Transcreener ADP2 fluorescence polarization)
Assay type: biochemical
Settings: Enzyme activity for compounds of Formula IV; Ki(app), 280 μM ATP, 25° C.
Procedure, shortened: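 4 nM GCN2 + 200 μM (RS)7 + compound (0–8 μM), 10 min preinc.; start with ATP (280 μM final); 1 h, 25 °C; pH 7.5 Tris/NaCl/MgCl2/DTT; ADP FP readout; IC50, Ki(app) via tight-binding fit.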

GCN2 kinase, sequence (Q9P2K8 whole entry): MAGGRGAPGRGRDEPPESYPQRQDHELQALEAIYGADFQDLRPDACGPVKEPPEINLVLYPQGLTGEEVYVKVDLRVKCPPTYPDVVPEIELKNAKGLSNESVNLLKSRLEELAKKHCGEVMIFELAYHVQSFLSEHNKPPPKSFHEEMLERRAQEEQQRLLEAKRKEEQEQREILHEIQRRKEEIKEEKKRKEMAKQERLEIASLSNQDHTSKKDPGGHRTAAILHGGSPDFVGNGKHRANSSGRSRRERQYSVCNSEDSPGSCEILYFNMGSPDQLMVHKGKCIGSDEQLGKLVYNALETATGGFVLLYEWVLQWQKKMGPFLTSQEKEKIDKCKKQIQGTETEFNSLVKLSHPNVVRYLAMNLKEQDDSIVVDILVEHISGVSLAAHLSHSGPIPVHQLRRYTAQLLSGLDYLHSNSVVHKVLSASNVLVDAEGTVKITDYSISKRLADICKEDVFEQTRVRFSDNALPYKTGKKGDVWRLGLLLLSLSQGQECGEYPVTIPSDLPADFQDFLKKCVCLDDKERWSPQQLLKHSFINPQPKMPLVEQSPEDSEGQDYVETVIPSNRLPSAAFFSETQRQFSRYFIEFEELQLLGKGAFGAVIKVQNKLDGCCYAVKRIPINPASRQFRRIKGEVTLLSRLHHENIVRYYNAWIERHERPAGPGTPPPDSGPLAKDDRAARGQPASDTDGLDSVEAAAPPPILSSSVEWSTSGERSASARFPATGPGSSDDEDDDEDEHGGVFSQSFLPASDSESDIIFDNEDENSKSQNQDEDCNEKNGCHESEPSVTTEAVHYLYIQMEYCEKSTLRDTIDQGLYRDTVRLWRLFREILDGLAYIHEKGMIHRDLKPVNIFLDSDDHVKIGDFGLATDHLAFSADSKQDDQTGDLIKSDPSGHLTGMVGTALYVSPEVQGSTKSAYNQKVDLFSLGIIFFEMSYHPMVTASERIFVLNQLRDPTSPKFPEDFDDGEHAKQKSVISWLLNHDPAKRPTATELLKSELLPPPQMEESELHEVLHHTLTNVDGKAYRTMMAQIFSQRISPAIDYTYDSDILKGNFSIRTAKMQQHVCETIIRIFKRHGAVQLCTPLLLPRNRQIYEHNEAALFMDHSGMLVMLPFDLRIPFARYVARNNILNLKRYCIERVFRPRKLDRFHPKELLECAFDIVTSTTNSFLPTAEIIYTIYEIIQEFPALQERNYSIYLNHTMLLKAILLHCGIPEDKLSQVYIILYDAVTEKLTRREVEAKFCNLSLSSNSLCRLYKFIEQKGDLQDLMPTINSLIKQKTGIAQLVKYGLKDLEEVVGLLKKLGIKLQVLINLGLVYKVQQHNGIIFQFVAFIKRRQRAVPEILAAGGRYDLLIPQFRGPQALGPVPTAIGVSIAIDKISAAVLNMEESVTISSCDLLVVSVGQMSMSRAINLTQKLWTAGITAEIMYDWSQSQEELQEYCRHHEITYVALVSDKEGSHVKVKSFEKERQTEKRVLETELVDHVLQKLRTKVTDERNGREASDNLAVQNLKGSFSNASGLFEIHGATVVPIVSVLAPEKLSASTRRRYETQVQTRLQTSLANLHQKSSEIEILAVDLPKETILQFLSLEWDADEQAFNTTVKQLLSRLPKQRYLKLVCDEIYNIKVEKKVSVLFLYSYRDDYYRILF

Ki [nM]	Structure (SMILES)
100 to 1000	OCC1CCCCN1c1ccnc(-c2cnc3cnc(C(F)(F)F)cn23)n1 (stereo not drawn) [IV-440, (1-(2-(6-(Trifluoromethyl)imidazo[1,2-a]pyrazin-3-yl)pyrimidin-4-yl)piperidin-2-yl)methanol]
100 to 1000	OC1CCN(c2ccnc(-c3cnc4cnc(C(F)(F)F)cn34)n2)CC1 [IV-441, 1-(2-(6-(Trifluoromethyl)imidazo[1,2-a]pyrazin-3-yl)pyrimidin-4-yl)piperidin-4-ol]
100 to 1000	FC(F)(F)c1cn2c(-c3nccc(-c4cnn(C5CCOCC5)c4)n3)cnc2cn1 [IV-448, 3-(4-(1-(Tetrahydro-2H-pyran-4-yl)-1H-pyrazol-4-yl)pyrimidin-2-yl)-6-(trifluoromethyl)imidazo[1,2-a]pyrazine]
100 to 1000	CC1NCCN(c2ccnc(-c3cnc4cnc(C(F)F)cn34)n2)C1c1cn[nH]c1 (stereo not drawn) [IV-455, 6-(Difluoromethyl)-3-(4-(3-methyl-2-(1H-pyrazol-4-yl)piperazin-1-yl)pyrimidin-2-yl)imidazo[1,2-a]pyrazine]
< 10	CC1CC(C(N)=O)C(C)N(c2ccnc(-c3cnc4cnc(C(F)(F)F)cn34)n2)C1 (stereo not drawn) [IV-464, 2,5-Dimethyl-1-(2-(6-(trifluoromethyl)imidazo[1,2-a]pyrazin-3-yl)pyrimidin-4-yl)piperidine-3-carboxamide]

Second part, the compound before the results:

Structure (SMILES)	Ki [nM]
OCCC1CCCCN1c1ccnc(-c2cnc3cnc(C(F)(F)F)cn23)n1 (stereo not drawn) [IV-438, 2-(1-(2-(6-(Trifluoromethyl)imidazo[1,2-a]pyrazin-3-yl)pyrimidin-4-yl)piperidin-2-yl)ethan-1-ol]	100 to 1000
OCC1CCCCN(c2ccnc(-c3cnc4cnc(C(F)(F)F)cn34)n2)C1 (stereo not drawn) [IV-445, (1-(2-(6-(Trifluoromethyl)imidazo[1,2-a]pyrazin-3-yl)pyrimidin-4-yl)azepan-3-yl)methanol]	100 to 1000
OCC1CN(c2ccnc(-c3cnc4cnc(C(F)(F)F)cn34)n2)CCO1 (stereo not drawn) [IV-446, (4-(2-(6-(Trifluoromethyl)imidazo[1,2-a]pyrazin-3-yl)pyrimidin-4-yl)morpholin-2-yl)methanol]	100 to 1000
FC(F)(F)c1cn2c(-c3nccc(N4CCC(c5c[nH]cn5)C4)n3)cnc2cn1 (stereo not drawn) [IV-456, 3-(4-(3-(1H-Imidazol-4-yl)pyrrolidin-1-yl)pyrimidin-2-yl)-6-(trifluoromethyl)imidazo[1,2-a]pyrazine]	100 to 1000
FC(F)(F)c1cn2c(-c3nccc(N4CCC(c5cc[nH]n5)C4)n3)cnc2cn1 (stereo not drawn) [IV-457, 3-(4-(3-(1H-Pyrazol-3-yl)pyrrolidin-1-yl)pyrimidin-2-yl)-6-(trifluoromethyl)imidazo[1,2-a]pyrazine]	100 to 1000
Fc1n[nH]cc1C1CCCN(c2ccnc(-c3cnc4cnc(C(F)(F)F)cn34)n2)C1 (stereo not drawn) [IV-473, 3-(4-(3-(5-Fluoro-1H-pyrazol-4-yl)piperidin-1-yl)pyrimidin-2-yl)-6-(trifluoromethyl)imidazo[1,2-a]pyrazine]	< 10
Nc1cnn(C2CCN(c3ccnc(-c4cnc5cnc(C(F)(F)F)cn45)n3)C2)c1 (stereo not drawn) [IV-478, 1-(1-(2-(6-(Trifluoromethyl)imidazo[1,2-a]pyrazin-3-yl)pyrimidin-4-yl)pyrrolidin-3-yl)-1H-pyrazol-4-amine]	100 to 1000
O=C(NCCO)C1CCCN(c2ccnc(-c3cnc4cnc(C(F)(F)F)cn34)n2)C1 (stereo not drawn) [IV-479, N-(2-Hydroxyethyl)-1-(2-(6-(trifluoromethyl)imidazo[1,2-a]pyrazin-3-yl)pyrimidin-4-yl)piperidine-3-carboxamide]	100 to 1000
CS(=O)(=O)CC1CCCN(c2ccnc(-c3cnc4cnc(C(F)(F)F)cn34)n2)C1 (stereo not drawn) [IV-482, 3-(4-(3-((Methylsulfonyl)methyl)piperidin-1-yl)pyrimidin-2-yl)-6-(trifluoromethyl)imidazo[1,2-a]pyrazine]	100 to 1000
CS(=O)(=O)C1CCCN(c2ccnc(-c3cnc4cnc(C(F)(F)F)cn34)n2)C1 (stereo not drawn) [IV-483, 3-(4-(3-(Methylsulfonyl)piperidin-1-yl)pyrimidin-2-yl)-6-(trifluoromethyl)imidazo[1,2-a]pyrazine]	100 to 1000
